Laboratory results: ChEMBL document CHEMBL2434852, “Synthesis, cytotoxicity and DNA binding of oxoazabenzo[de]anthracenes derivatives in colon cancer Caco-2 cells” (Eur J Med Chem, 2013)
Activity calls are given as the source filed them. The calls are words filed in the database; no cut-off is given here.

How the values were obtained:
[1] = tested on: DNA; assay: Displacement of ethidium bromide from calf thymus DNA assessed as fluorescence quenching by fluorometric assay; format: nucleic-acid assay; conditions: Bos taurus
[2] = tested on: DNA; assay: Binding affinity to calf thymus DNA assessed as melting temperature at 10 uM by UV-Vis spectrophotometer analysis; format: nucleic-acid assay; conditions: Bos taurus
[3] = tested on: Caco-2; assay: Cytotoxicity against human Caco2 cells up to 40 uM after 24 hrs by MTT assay; format: functional, cell-based
[4] = tested on: Caco-2; assay: Cytotoxicity against human Caco2 cells after 72 hrs by MTT assay; format: functional, cell-based; conditions: for IC50: Caco-2, 72 h
[5] = tested on: Escherichia coli; assay: Binding affinity to Escherichia coli supercoiled pBR322 assessed as change in morphology of plasmid to more relaxed conformation at 50 to 100 uM by agarose gel electrophoresis
[6] = biological target: DNA topoisomerase 2-alpha (Homo sapiens) (UniProt P11388); assay: Inhibition of topoisomerase 2 (unknown origin) relaxation of supercoiled pBR322 at 50 to 100 uM by agarose gel electrophoresis
[7] = biological target: T1, DNA topoisomerase 1 (Homo sapiens) (UniProt P11387); assay: Inhibition of topoisomerase 1 (unknown origin) relaxation of supercoiled pBR322 at 50 to 100 uM by agarose gel electrophoresis
T1 sequence (whole entry): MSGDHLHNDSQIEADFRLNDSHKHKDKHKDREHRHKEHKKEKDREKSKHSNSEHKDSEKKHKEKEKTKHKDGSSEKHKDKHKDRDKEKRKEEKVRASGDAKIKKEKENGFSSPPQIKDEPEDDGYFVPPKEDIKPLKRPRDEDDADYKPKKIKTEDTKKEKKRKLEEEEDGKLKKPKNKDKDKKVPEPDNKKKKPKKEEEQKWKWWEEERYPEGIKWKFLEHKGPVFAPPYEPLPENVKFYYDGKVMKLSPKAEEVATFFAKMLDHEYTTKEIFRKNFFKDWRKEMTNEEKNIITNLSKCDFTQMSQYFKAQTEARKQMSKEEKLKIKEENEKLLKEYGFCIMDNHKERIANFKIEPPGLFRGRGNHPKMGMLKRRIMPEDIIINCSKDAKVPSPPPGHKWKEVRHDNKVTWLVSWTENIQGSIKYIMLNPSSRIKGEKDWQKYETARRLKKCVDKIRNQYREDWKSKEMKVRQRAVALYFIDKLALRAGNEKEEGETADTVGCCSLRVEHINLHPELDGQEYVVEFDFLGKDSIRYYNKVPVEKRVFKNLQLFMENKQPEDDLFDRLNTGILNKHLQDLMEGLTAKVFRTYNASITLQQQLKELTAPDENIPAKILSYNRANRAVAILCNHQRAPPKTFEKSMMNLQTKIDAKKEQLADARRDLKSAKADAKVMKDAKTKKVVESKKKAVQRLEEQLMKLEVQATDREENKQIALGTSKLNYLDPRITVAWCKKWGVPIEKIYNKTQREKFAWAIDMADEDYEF

Chain of DNA topoisomerase 2-alpha (Homo sapiens) (P11388 whole entry): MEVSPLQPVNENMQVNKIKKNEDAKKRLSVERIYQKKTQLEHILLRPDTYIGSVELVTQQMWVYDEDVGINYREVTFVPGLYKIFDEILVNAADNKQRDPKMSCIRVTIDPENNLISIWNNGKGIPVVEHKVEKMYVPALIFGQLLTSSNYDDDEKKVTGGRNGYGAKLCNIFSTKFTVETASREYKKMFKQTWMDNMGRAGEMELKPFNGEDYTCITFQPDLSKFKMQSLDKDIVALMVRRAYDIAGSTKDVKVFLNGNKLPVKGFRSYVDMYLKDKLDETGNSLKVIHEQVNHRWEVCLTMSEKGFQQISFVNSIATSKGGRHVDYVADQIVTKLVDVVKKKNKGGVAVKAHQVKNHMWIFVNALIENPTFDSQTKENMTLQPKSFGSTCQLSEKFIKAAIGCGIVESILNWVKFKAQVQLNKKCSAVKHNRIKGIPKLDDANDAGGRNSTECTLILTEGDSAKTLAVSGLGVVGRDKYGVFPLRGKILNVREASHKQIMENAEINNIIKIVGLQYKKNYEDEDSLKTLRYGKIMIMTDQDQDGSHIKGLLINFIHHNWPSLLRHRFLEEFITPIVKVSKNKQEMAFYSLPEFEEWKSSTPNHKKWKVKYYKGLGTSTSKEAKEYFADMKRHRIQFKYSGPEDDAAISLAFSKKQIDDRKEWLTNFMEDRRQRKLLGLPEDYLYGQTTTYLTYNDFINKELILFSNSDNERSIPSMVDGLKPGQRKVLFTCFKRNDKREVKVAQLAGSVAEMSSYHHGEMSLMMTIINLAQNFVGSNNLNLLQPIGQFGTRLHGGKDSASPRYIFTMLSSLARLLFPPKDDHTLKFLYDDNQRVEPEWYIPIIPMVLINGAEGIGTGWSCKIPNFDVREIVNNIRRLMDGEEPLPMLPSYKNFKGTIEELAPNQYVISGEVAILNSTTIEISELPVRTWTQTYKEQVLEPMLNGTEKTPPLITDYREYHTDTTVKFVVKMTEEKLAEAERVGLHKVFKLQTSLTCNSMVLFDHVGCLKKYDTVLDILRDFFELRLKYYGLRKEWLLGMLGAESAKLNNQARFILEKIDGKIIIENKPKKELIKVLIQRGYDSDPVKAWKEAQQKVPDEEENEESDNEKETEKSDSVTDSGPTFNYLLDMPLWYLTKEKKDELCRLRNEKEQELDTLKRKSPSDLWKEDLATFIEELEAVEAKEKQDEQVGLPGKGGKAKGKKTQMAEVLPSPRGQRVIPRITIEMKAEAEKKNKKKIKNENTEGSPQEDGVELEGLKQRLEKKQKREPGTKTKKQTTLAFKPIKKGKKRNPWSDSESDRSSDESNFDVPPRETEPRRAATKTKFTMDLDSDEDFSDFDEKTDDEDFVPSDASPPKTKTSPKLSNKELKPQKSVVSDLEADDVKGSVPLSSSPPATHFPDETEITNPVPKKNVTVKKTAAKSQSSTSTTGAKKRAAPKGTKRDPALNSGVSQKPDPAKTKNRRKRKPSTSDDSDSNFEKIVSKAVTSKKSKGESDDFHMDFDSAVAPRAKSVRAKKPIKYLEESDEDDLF

| Compound | C50 [1] | Tm [2] | Activity [3] | Activity [4] | IC50 [4] | Activity [5] | inhibition [6] | inhibition [7] |
| --- | --- | --- | --- | --- | --- | --- | --- | --- |
| O=C1c2cccc(O)c2C2=NC(CCCCO)Oc3cccc1c32 (centres undefined) | inactive | 62.2 °C | inactive | – | – | – | – | – |
| O=C1c2cccc(O)c2C2=NC(CCCO)Oc3cccc1c32 (centres undefined) | inactive | 58.4 °C | inactive | – | – | – | – | – |
| O=C1c2cccc(O)c2C2=NC(CCCCCO)Oc3cccc1c32 (centres undefined) | inactive | 59.2 °C | inactive | – | – | – | – | – |
| O=C1c2cccc(O)c2C2=NC(CO)Oc3cccc1c32 (centres undefined) | inactive | 64.3 °C | inactive | – | – | – | – | – |
| NCCC1CN(C2N=C3c4c(O)cccc4C(=O)c4cccc(c43)O2)CCO1 (centres undefined) | inactive | 66.2 °C | inactive | inactive | – | – | – | – |
| COc1cccc2c1C(=O)c1c(O)c3c(c(O)c1C2=O)C[C@@](O)(C(=O)CO)C[C@@H]3O[C@H]1C[C@H](N)[C@H](O)[C@H](C)O1 [DOXORUBICIN] | – | 92 °C | inactive | – | 5 µM | – | – | – |
| O=C1c2cccc(O)c2C2=NC(CCO)Oc3cccc1c32 (centres undefined) | inactive | 57.2 °C | inactive | – | – | – | – | – |
| NCCC1CCCCN1C1N=C2c3c(O)cccc3C(=O)c3cccc(c32)O1 (centres undefined) | 6 µM | 79.9 °C | inactive | – | 16 µM | Active | inactive | inactive |
